Here are results for 41 compounds from PubChem BioAssay AID602210 (Sanford-Burnham Center for Chemical Genomics, 2012).

Activity calls are given as the source filed them. The rule behind the calls is not given here. A value given as a limit tells only on which side of the number the result lay.

By IC50 is commonly meant the point on the concentration scale where inhibition reaches its midpoint.

The assay is described as follows: H9c2 cardiomyoblast viability modulators under 2-DG – cell-based, ATPlite luminescence, rat, set 2, myocardial damage modulator project, dose response (AID 602210). The note with it: H9c2 rat cardiomyoblasts, 2-deoxyglucose-induced death, 2 h.
Turning to `COc1cc(-c2cc3nc(NCCc4ccc(S(N)(=O)=O)cc4)ccn3n2)cc(OC)c1OC`, the IC50 was 15.6 µM (inactive).
On to `COc1ccc(-c2cc(C(=O)N(C)Cc3ccccc3F)c3ccccc3n2)cc1OC`, for which the IC50 was 13.5 µM (inactive).
Consider `COc1cc(/C=N/NC(=O)c2ccccc2)ccc1OS(=O)(=O)c1ccccc1`, for which the IC50 was 13.5 µM (inactive).
In the case of `CCn1c(O)c(/C=N/N=C/c2ccccc2)c2ccc(C3=NNC(=O)CC3)cc21`, the IC50 was 10.7 µM (inactive).
In the case of `COC(=O)c1ccc(OCC(=O)Nc2ccccc2C(=O)NC2CC2)cc1`, the IC50 was 11.2 µM (inactive).
Take `COc1cccc(CN2CCN(C(=O)c3cc(-c4cccnc4)nc4ccc(C)cc34)CC2)c1`: the IC50 was 48.8 µM (inactive).
Take `Cc1cc(C)c(C)c(S(=O)(=O)N2CCN(C(=O)c3cc(=O)[nH]c4ccccc34)CC2)c1C`: the IC50 is 5.01 µM.
Consider `CCOC(=O)c1cccc(Nc2nc(-c3cccnc3)nc3ccccc23)c1`, for which the IC50 was > 79 µM (inactive).
Turning to `COc1cc(NC(=O)c2ccco2)c(C(=O)OCC(=O)c2c[nH]c3ccccc23)cc1OC`, the IC50 is 6.43 µM.
In the case of `C#CCOc1nc(Nc2cccc([N+](=O)[O-])c2)nc(OCC#C)n1` it was 24.9 µM (inactive).
As for `COc1cc(NC(=O)c2cccc3c(-c4cnn(C)c4)coc23)cc(OC)c1OC`, the IC50 was > 79 µM (inactive).
In the case of `N#C/C(=C\Nc1ccc2c(c1)OCCO2)c1nc2ccccc2[nH]1` it was 17.3 µM (inactive).
Under `COc1ccccc1NC(=O)CSc1ccc2nnc(-c3ccc(C)cc3)n2n1` stands > 79 µM (inactive); under `Cc1cccc(NC(=O)c2oc3ccc(S(=O)(=O)N4CCOCC4)cc3c2C)c1C`, 11 µM (inactive).
Turning to `CC(C)OCCCNC(=O)CCC(=O)NNc1nc2ccccc2c2nc(-c3ccccc3)nn12`, the IC50 was 22.2 µM (inactive).
Take `COc1cccc(Nc2nc3ccccc3n3nnnc23)c1`: the IC50 was > 79 µM (inactive).
Regarding `CCOCCCNC(=O)CCC(=O)NNc1nc2ccccc2c2nc(-c3ccccc3)nn12`, the IC50 was 35.6 µM (inactive).
Under `CC1(C)CC(=O)C2=C(C1)N(CCN1CCOCC1)C1=C(C(=O)CC(C)(C)C1)C2c1ccc(Cl)cc1` stands 39.1 µM (inactive); under `CCOC(=O)C1CCN(c2cc3c(cc2NC(=O)c2ccc(OC)c(OC)c2)n(C)c(=O)n3C)CC1`, 4.59 µM.
Under `COc1ccc(Nc2nnc(-c3ccc(O)cc3)c3ccccc23)cc1C(N)=O` stands > 79 µM (inactive); under `O=C(COC(=O)c1cc(-c2cccnc2)nc2ccccc12)Nc1ccc(F)cc1F`, 32.5 µM (inactive); under `COc1ccc(-c2ccc3[nH]c4c(c3c2)CCN2C[C@H]3[C@H](C)ON(C)[C@H]3C[C@@H]42)cc1`, 29.8 µM (inactive).
Under `O=C(N/N=C/c1ccncc1)c1ccc(COc2cccc3cccnc23)cc1` stands > 79 µM (inactive); under `C[C@@H]1ON(C)[C@H]2C[C@H]3c4[nH]c5ccc(-c6ccc7c(c6)OCO7)cc5c4CCN3C[C@@H]12`, > 79 µM (inactive).
`COc1ccc(CCNC(=O)c2cc3c(C)nccc3[nH]c2=O)cc1OC`: the IC50 is 20.7 µM (inactive).
Under `C=CCn1cnc2c(c1=O)c1nc3ccccc3nc1n2/N=C/c1cc(OC)c(OC)c(OC)c1` stands 2.64 µM.
In the case of `COC(=O)c1ccc(C(NC(=O)OCc2ccccc2)/C(C)=C/[C@@H](C)C(=O)NCc2ccc(OC)c(OC)c2)cc1` (stereo partly specified) it was 23.8 µM (inactive); in that of `C/C(=N\Nc1nnc2c3ccccc3n(C)c2n1)c1ccc(C)o1`, 12.3 µM (inactive).
Take `CCOc1ccccc1Nc1nnc(SCc2nnc(-c3cc(OC)c(OC)c(OC)c3)o2)s1`: the IC50 was 12.8 µM (inactive).
Under `O=C(c1cc2nc(-c3ccccc3)cc(-c3ccccc3)n2n1)N1CCN(C(=O)c2ccco2)CC1` stands 10.3 µM (inactive); under `COc1ccc(C(=O)COC(=O)C(CCCCN2C(=O)C3C4C=CC(C4)C3C2=O)N2C(=O)C3C4C=CC(C4)C3C2=O)cc1` (stereo unspecified), 11.8 µM (inactive); under `O=C(COC(=O)c1c2c(nc3ccccc13)/C(=C/c1cccc([N+](=O)[O-])c1)CCC2)NC1CCS(=O)(=O)C1` (stereo unspecified), 12.9 µM (inactive).
Turning to `COC(=O)c1ccc2c(=O)[nH]c(COC(=O)c3[nH]c(C)c(C(C)=O)c3C)nc2c1`, the IC50 is 9.12 µM.
Under `Cc1nn2c(-c3cccc(NC(=O)c4ccco4)c3)nnc2c2ccccc12` stands 7.77 µM; under `O=C(CSc1nnc(-c2ccccc2)n1Cc1ccccc1)NNC(=O)c1ccccc1O`, > 79 µM (inactive).
As for `Cc1nn(-c2ccccc2)nc1C(=O)Nc1cccc(C(=O)NC2CC2)c1`, the IC50 was 18.6 µM (inactive).
In the case of `O=C(C[C@@H]1C/C=C/CC[C@@H](Cc2ccc(F)cc2)C(=O)O[C@@H](c2ccccc2)CNC1=O)NCCO`, the IC50 is 27.5 µM (inactive).
In the case of `Cc1cc(NC(=O)C2CCCCC2)nc2c1c(=O)oc1ccccc12` it was 26.8 µM (inactive).
In the case of `COc1ccc(NC(=O)c2cc3c(=O)n(C)c4ccccc4c3n2C)cc1OC` it was > 79 µM (inactive); in that of `COc1cc(/C=N/NC(=O)c2cccnc2)ccc1OS(=O)(=O)c1cc(C)ccc1C`, 18.5 µM (inactive).
For the compound `CC(=O)c1ccc(-c2ccc(C(=O)Nc3nc(-c4ccccn4)cs3)o2)cc1`, the IC50 is 5.91 µM.
